# In patent publication US20100298141A1, “SUBSTITUTED PYRIDINE N-OXIDE HERBICIDES” (E. I. DU PONT DE NEMOURS AND COMPANY, priority 2007, published 2010):
# What was measured:
# woolly cupgrass = test: Test C pre-/postemergence test; assay type: in vivo, Eriochloa villosa
# Source text: (§1) Seeds of plant species selected from blackgrass (Alopecurus myosuroides), downy brome (Bromus tectorum), green foxtail (Setaria viridis), Italian ryegrass (Lolium multiflorum), wheat (Triticum aestivum), wild oat (Avena fatua), catchweed bedstraw (Galium aparine), Russian thistle (Salsola kali), […] (Cynodon dactylon), Surinam grass (Brachiaria decumbens), cocklebur (Xanthium strumarium), corn (Zea mays), crabgrass (Digitaria sanguinalis), woolly cupgrass (Eriochloa villosa), giant foxtail (Setaria faberii), Goosegrass (Eleusin indica), johnsongrass (Sorghum halepense), kochia (Kochia scoparia), lambsquarters (Chenopodium album), morningglory (Ipomoea coccinea), eastern black nightshade (Solanum ptycanthum), yellow nutsedge (Cyperus esculentus), pigweed (Amaranthus retroflexus), common ragweed (Ambrosia elation), soybean (Glycine max), common (oilseed) sunflower (Helianthus annuus), and velvetleaf (Abutilon theophrasti) were planted and treated preemergence with test chemicals formulated in a non-phytotoxic solvent mixture which included a surfactant. At the same time, plants selected from these crop and weed species and also winter barley (Hordeum vulgare), canarygrass (Phalaris minor), and chickweed (Stellaria media) were treated with postemergence applications of some of the test chemicals formulated in the same manner. Plants ranged in height from 2 to 18 cm (1- to 4-leaf stage) for postemergence treatments. […] At time of treatment, test pots were flooded to 3 cm above the soil surface, treated by application of test compounds directly to the paddy water, and then maintained at that water depth for the duration of the test. […] A dash (-) response means no test result.
# kochia = test: Test C pre-/postemergence test; assay type: in vivo, Kochia scoparia
# Source text: as §1
# giant foxtail [1] = test: Test C pre-/postemergence test; assay type: in vivo, Setaria faberii
# Source text: as §1
# giant foxtail [2] = test: Test A pre-/postemergence greenhouse test; assay type: in vivo, Setaria faberi; conditions: for Foxtail, Giant plant response rating: 0 to 100 scale; for Plant response rating, Foxtail, Giant: 0 to 100 scale where 0 is no effect and 100 is complete control
# Outline: (§2)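 Pots of loam–sand soil sown with the test species are sprayed preemergence on the soil surface; emerged seedlings (1–2 leaves, 2–10 cm) are sprayed postemergence at the same time. The vehicle is a non-phytotoxic solvent mixture with surfactant. Injury is scored visually after ~10 d in greenhouse.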
# cocklebur = test: Test C pre-/postemergence test; assay type: in vivo, Xanthium strumarium; conditions: Postemergence; for Plant response rating, Cocklebur: scale 0 to 100, 0 no effect, 100 complete control
# Source text: as §1
# morningglory = test: Test A pre-/postemergence greenhouse test; assay type: in vivo, Ipomoea spp.; conditions: for Morningglory plant response rating: 0 to 100 scale; for Plant response rating, Morningglory: 0 to 100 scale where 0 is no effect and 100 is complete control
# Outline: as §2
# downy brome = test: Test C pre-/postemergence test; assay type: in vivo, Bromus tectorum
# Source text: as §1
# wild oat = test: Test C pre-/postemergence test; assay type: in vivo, Avena fatua
# Source text: as §1
# velvetleaf = test: Test C pre-/postemergence test; assay type: in vivo, Abutilon theophrasti
# Source text: as §1
# common ragweed = test: Test C pre-/postemergence test; assay type: in vivo, Ambrosia elation
# Source text: as §1
# lambsquarters = test: Test C pre-/postemergence test; assay type: in vivo, Chenopodium album; conditions: Postemergence; for Plant response rating, Lambsquarters: scale 0 to 100, 0 no effect, 100 complete control
# Source text: as §1
# Surinam grass = test: Test C pre-/postemergence test; assay type: in vivo, Brachiaria decumbens
# Source text: as §1
# redroot pigweed = test: Test A pre-/postemergence greenhouse test; assay type: in vivo, Amaranthus retroflexus; conditions: for Pigweed plant response rating: 0 to 100 scale; for Plant response rating, Pigweed: 0 to 100 scale where 0 is no effect and 100 is complete control
# Outline: as §2
# blackgrass = test: Test C pre-/postemergence test; assay type: in vivo, Alopecurus myosuroides
# Source text: as §1
# wheat [3] = test: Test A pre-/postemergence greenhouse test; assay type: in vivo, Triticum aestivum; conditions: for Wheat plant response rating: 0 to 100 scale; for Plant response rating, Wheat: 0 to 100 scale where 0 is no effect and 100 is complete control
# Outline: as §2
# wheat [4] = test: Test C pre-/postemergence test; assay type: in vivo, Triticum aestivum
# Source text: as §1
# [5] = system: common (oilseed) sunflower; test: Test C pre-/postemergence test; assay type: in vivo, Helianthus annuus
# Source text: as §1
# [6] = Postemergence, 62 g ai/ha, scale 0 to 100, 0 no effect, 100 complete control
# [7] = Postemergence, 125 g ai/ha, scale 0 to 100, 0 no effect, 100 complete control
# [8] = Postemergence, 250 g ai/ha, scale 0 to 100, 0 no effect, 100 complete control
# [9] = Postemergence, 125 g ai/ha, 0 is no effect, 100 is complete control
# [10] = Postemergence, 500 g ai/ha, 0 is no effect, 100 is complete control
# [11] = Preemergence, 125 g ai/ha, 0 no effect, 100 complete control
# [12] = 62 g ai/ha, Preemergence, scale 0 to 100
# [13] = 125 g ai/ha, preemergence, scale 0 (no effect) to 100 (complete control)
# [14] = Preemergence, 31 g ai/ha, scale 0 to 100 (0 no effect, 100 complete control)
# [15] = preemergence, 250 g ai/ha, scale 0 (no effect) to 100 (complete control)
smiles,measurement,setting,value
CC(c1c(C(F)(F)F)nn(C)c1Cl)S(=O)(=O)c1ccc(Cl)c[n+]1[O-] (racemic) [Compound 40],"Plant response rating (0 to 100), Cupgrass, Woolly","woolly cupgrass; Postemergence, 31 g ai/ha",0
same,"Plant response rating, Cupgrass, Woolly",woolly cupgrass; [6],0
same,"Plant response rating, Cupgrass, Woolly",woolly cupgrass; [7],0
same,"Plant response rating, Cupgrass, Woolly",woolly cupgrass; [8],0
same,"Plant response rating (0 to 100), Kochia","kochia; Postemergence, 31 g ai/ha",0
same,"Plant response rating, Kochia",kochia; [6],0
same,"Plant response rating, Kochia",kochia; [7],0
same,"Plant response rating, Kochia",kochia; [8],0
same,"Plant response rating (0 to 100), Foxtail, Giant","giant foxtail [1]; Postemergence, 31 g ai/ha",0
same,"Plant response rating, Foxtail, Giant",giant foxtail [1]; [6],0
same,"Plant response rating, Foxtail, Giant",giant foxtail [1]; [7],0
same,"Plant response rating, Foxtail, Giant",giant foxtail [1]; [8],0
same,"Foxtail, Giant plant response rating",giant foxtail [2]; [9],80
same,"Foxtail, Giant plant response rating",giant foxtail [2]; [10],90
same,"Foxtail, Giant plant response rating",giant foxtail [2]; [11],90
same,"Plant response rating, Foxtail, Giant","giant foxtail [2]; Preemergence, 500 g ai/ha",100
same,"Plant response rating (0 to 100), Cocklebur",cocklebur; 31 g ai/ha,0
same,"Plant response rating, Cocklebur",cocklebur; 62 g ai/ha,0
same,"Plant response rating, Cocklebur",cocklebur; 125 g ai/ha,0
same,"Plant response rating, Cocklebur",cocklebur; 250 g ai/ha,0
same,Morningglory plant response rating,morningglory; [9],0
same,Morningglory plant response rating,morningglory; [10],30
same,Morningglory plant response rating,morningglory; [11],0
same,"Plant response rating, Morningglory","morningglory; Preemergence, 500 g ai/ha",80
same,"Plant response rating (0 to 100), Bromegrass, Downy","downy brome; Postemergence, 31 g ai/ha",0
same,"Plant response rating, Bromegrass, Downy",downy brome; [6],0
same,"Plant response rating, Bromegrass, Downy",downy brome; [7],0
same,"Plant response rating, Bromegrass, Downy",downy brome; [8],0
same,"Plant response rating (0 to 100), Oat, Wild","wild oat; Postemergence, 31 g ai/ha",0
same,"Plant response rating, Oat, Wild",wild oat; [6],0
same,"Plant response rating, Oat, Wild",wild oat; [7],0
same,"Plant response rating, Oat, Wild",wild oat; [8],5
same,"Plant response rating (0 to 100), Velvetleaf","velvetleaf; Postemergence, 31 g ai/ha",0
same,"Plant response rating (0 to 100), Velvetleaf","velvetleaf; Postemergence, 62 g ai/ha",0
same,"Plant response rating, Velvetleaf",velvetleaf; [7],0
same,"Plant response rating, Velvetleaf",velvetleaf; [8],0
same,"Plant response rating (0 to 100), Ragweed","common ragweed; Postemergence, 31 g ai/ha",0
same,"Plant response rating (0 to 100), Ragweed","common ragweed; Postemergence, 62 g ai/ha",0
same,"Plant response rating, Ragweed",common ragweed; [7],0
same,"Plant response rating, Ragweed",common ragweed; [8],5
same,"Plant response rating (0 to 100), Lambsquarters",lambsquarters; 31 g ai/ha,0
same,"Plant response rating, Lambsquarters",lambsquarters; 62 g ai/ha,0
same,"Plant response rating, Lambsquarters",lambsquarters; 125 g ai/ha,0
same,"Plant response rating, Lambsquarters",lambsquarters; 250 g ai/ha,0
same,"Plant response rating (0 to 100), Surinam Grass","Surinam grass; Postemergence, 31 g ai/ha",0
same,"Plant response rating (0 to 100), Surinam Grass","Surinam grass; Postemergence, 62 g ai/ha",0
same,"Plant response rating, Surinam Grass",Surinam grass; [7],0
same,"Plant response rating, Surinam Grass",Surinam grass; [8],0
same,Pigweed plant response rating,redroot pigweed; [9],30
same,Pigweed plant response rating,redroot pigweed; [10],60
same,Pigweed plant response rating,redroot pigweed; [11],60
same,"Plant response rating, Pigweed","redroot pigweed; Preemergence, 500 g ai/ha",100
same,"Plant response rating (0 to 100), Blackgrass","blackgrass; Postemergence, 31 g ai/ha",0
same,"Plant response rating, Blackgrass",blackgrass; [6],0
same,"Plant response rating, Blackgrass",blackgrass; [7],0
same,"Plant response rating, Blackgrass",blackgrass; [8],0
same,Wheat plant response rating,wheat [3]; [9],30
same,Wheat plant response rating,wheat [3]; [10],50
same,Wheat plant response rating,wheat [3]; [11],0
same,"Plant response rating, Wheat","wheat [3]; Preemergence, 500 g ai/ha",40
same,"Plant response rating (0 to 100), Wheat","wheat [4]; Postemergence, 31 g ai/ha",0
same,"Plant response rating (0 to 100), Wheat","wheat [4]; Postemergence, 62 g ai/ha",0
same,"Plant response rating, Wheat",wheat [4]; [7],0
same,"Plant response rating, Wheat",wheat [4]; [8],5
CCn1nc(C(F)(F)F)c(CS(=O)(=O)c2cccc[n+]2[O-])c1OCC(F)(F)F [Compound 63],"Cupgrass, Woolly plant response rating",woolly cupgrass; [12],85
same,"Cupgrass, Woolly plant response rating",woolly cupgrass; [13],85
same,"Plant response rating, Cupgrass, Woolly",woolly cupgrass; [14],0
same,Kochia plant response rating,kochia; [12],100
same,Kochia plant response rating,kochia; [13],100
same,"Plant response rating, Kochia",kochia; [14],100
same,Kochia plant response rating,kochia; [15],100
same,"Foxtail, Giant plant response rating",giant foxtail [1]; [12],100
same,"Foxtail, Giant plant response rating",giant foxtail [1]; [13],100
same,"Plant response rating, Foxtail, Giant",giant foxtail [1]; [14],100
same,"Foxtail, Giant plant response rating",giant foxtail [1]; [15],100
same,Sunflower plant response rating,[5]; [12],60
same,Sunflower plant response rating,[5]; [13],80
same,"Plant response rating, Sunflower",[5]; [14],10
same,Sunflower plant response rating,[5]; [15],85
same,"Plant response rating, Foxtail, Giant","giant foxtail [2]; Postemergence, 125 g ai/ha",80
same,"Foxtail, Giant plant response rating",giant foxtail [2]; [10],90
same,"Foxtail, Giant plant response rating",giant foxtail [2]; [11],100
same,"Plant response rating, Foxtail, Giant","giant foxtail [2]; Preemergence, 500 g ai/ha",100
same,"Plant response rating, Morningglory","morningglory; Postemergence, 125 g ai/ha",30
same,Morningglory plant response rating,morningglory; [10],60
same,Morningglory plant response rating,morningglory; [11],20
same,"Plant response rating, Morningglory","morningglory; Preemergence, 500 g ai/ha",70
same,"Bromegrass, Downy plant response rating",downy brome; [12],70
same,"Bromegrass, Downy plant response rating",downy brome; [13],98
same,"Plant response rating, Bromegrass, Downy",downy brome; [14],40
same,"Bromegrass, Downy plant response rating",downy brome; [15],100
same,"Oat, Wild plant response rating",wild oat; [12],60
same,"Oat, Wild plant response rating",wild oat; [13],85
same,"Plant response rating, Oat, Wild",wild oat; [14],50
same,"Oat, Wild plant response rating",wild oat; [15],95
same,Velvetleaf plant response rating,velvetleaf; [12],80
same,Velvetleaf plant response rating,velvetleaf; [13],85
same,"Plant response rating, Velvetleaf",velvetleaf; [14],50
same,Velvetleaf plant response rating,velvetleaf; [15],100
same,Ragweed plant response rating,common ragweed; [12],100
same,Ragweed plant response rating,common ragweed; [13],100
same,"Plant response rating, Ragweed",common ragweed; [14],90
same,Ragweed plant response rating,common ragweed; [15],100
same,Surinam Grass plant response rating,Surinam grass; [12],100
same,Surinam Grass plant response rating,Surinam grass; [13],100
same,"Plant response rating, Surinam Grass",Surinam grass; [14],100
same,Surinam Grass plant response rating,Surinam grass; [15],100
same,"Plant response rating, Pigweed","redroot pigweed; Postemergence, 125 g ai/ha",50
same,Pigweed plant response rating,redroot pigweed; [10],80
same,Pigweed plant response rating,redroot pigweed; [11],70
same,"Plant response rating, Pigweed","redroot pigweed; Preemergence, 500 g ai/ha",100
same,Blackgrass plant response rating,blackgrass; [12],100
same,Blackgrass plant response rating,blackgrass; [13],100
same,"Plant response rating, Blackgrass",blackgrass; [14],70
same,Blackgrass plant response rating,blackgrass; [15],100
same,"Plant response rating, Wheat","wheat [3]; Postemergence, 125 g ai/ha",50
same,Wheat plant response rating,wheat [3]; [10],60
same,Wheat plant response rating,wheat [3]; [11],20
same,"Plant response rating, Wheat","wheat [3]; Preemergence, 500 g ai/ha",80
same,Wheat plant response rating,wheat [4]; [12],20
same,Wheat plant response rating,wheat [4]; [13],60
same,"Plant response rating, Wheat",wheat [4]; [14],0
same,Wheat plant response rating,wheat [4]; [15],85
